These are literature values, as cited in publication PMC6394493 (Cancer Chemotherapy and Pharmacology, 2018).

For this data set the following is noted: bid; Western oncology patients; cited from earlier work.

As to `Cn1c(=O)n(-c2ccc(C(C)(C)C#N)cc2)c2c3cc(-c4cnc5ccccc5c4)ccc3ncc21` [BEZ235], the MTD is given as 300 mg.
